In US20050107386A1, “Methods of treating diseases and disorders by targeting multiple kinases” (priority 2003, published 2005):

Columns and labels:
Format in all cases: biochemical
[1] = target: CDK2/cyclinA(h) (Homo sapiens, UniProt P24941); assay: CDK2/cyclinA(h) kinase assay; settings: for Inhibitory activity (% of control), CDK2/cyclinA(h): 3 μM, percent of control kinase activity
Method: (§1) Six compounds (presumptive single agents) were tested against a panel of 50 kinases. The results are presented in Table 2; numbers for each kinase indicate the percent of control kinase activity in the presence of a 3μM concentration of the indicated agent.
(§2) Agents that target two or more different kinases are useful in the methods of the invention as described elsewhere herein. Such compounds may be identified, and their effect on certain kinases may be identified, using the assays briefly described below in Examples 4-83. Each of these assays was carried out as described in Davies et al., Biochem. J., 351:95-105 (2000). All assays were carried out at 10 μM ATP unless otherwise noted.
(§3) In a final reaction volume of 25 μl, CDK2/cyclinA (h) (5-10 mU) is incubated with 8 mM MOPS pH 7.0, 0.2 mM EDTA, 0.1 mg/ml histone H1, 10 mM MgAcetate and [γ-^33p-ATP] (specific activity approx. 500 cpm/pmol, concentration as required). The reaction is initiated by the addition of Mg^2+ [γ-^33P-ATP]. After incubation for 40 minutes at room temperature, the reaction is stopped by the addition of 5 μl of a 3% phosphoric acid solution. 10 μl of the reaction is then spotted onto a P30 filtermat and washed three times for 5 minutes in 75 mM phosphoric acid and once in methanol prior to drying and scintillation counting.

[2] = target: cSRC(h) (Homo sapiens, UniProt P12931); assay: cSRC(h) kinase assay; settings: for Inhibitory activity (% of control), cSRC(h): 3 μM, percent of control kinase activity
cSRC(h), sequence (P12931 whole entry): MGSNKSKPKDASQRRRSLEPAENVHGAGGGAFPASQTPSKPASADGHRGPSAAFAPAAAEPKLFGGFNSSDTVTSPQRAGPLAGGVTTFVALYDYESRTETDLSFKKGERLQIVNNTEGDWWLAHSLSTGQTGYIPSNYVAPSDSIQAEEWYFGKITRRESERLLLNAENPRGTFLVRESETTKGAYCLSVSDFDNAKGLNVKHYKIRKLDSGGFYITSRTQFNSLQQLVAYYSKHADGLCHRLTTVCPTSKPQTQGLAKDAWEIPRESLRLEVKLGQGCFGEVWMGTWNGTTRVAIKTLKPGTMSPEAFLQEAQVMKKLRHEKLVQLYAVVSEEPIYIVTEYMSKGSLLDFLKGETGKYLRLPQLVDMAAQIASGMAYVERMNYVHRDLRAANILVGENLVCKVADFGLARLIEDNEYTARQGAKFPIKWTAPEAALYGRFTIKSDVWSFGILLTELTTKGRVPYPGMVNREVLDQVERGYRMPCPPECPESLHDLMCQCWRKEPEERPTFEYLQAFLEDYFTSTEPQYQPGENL
Method: as §1, §2
as §3, with “cSRC” for “CDK2/cyclinA”, “250 μM […] (Cdc2 peptide; SEQ ID NO:7),” for “0.1 mg/ml histone H1,”, “[γ-^33P-ATP] (Specific” for “[γ-^33p-ATP] (specific”

[3] = target: T1, Bmx(h) (Homo sapiens, UniProt P51813); assay: Bmx(h) kinase assay; settings: 3 μM; percent of control kinase activity
T1 sequence (P51813 1-675): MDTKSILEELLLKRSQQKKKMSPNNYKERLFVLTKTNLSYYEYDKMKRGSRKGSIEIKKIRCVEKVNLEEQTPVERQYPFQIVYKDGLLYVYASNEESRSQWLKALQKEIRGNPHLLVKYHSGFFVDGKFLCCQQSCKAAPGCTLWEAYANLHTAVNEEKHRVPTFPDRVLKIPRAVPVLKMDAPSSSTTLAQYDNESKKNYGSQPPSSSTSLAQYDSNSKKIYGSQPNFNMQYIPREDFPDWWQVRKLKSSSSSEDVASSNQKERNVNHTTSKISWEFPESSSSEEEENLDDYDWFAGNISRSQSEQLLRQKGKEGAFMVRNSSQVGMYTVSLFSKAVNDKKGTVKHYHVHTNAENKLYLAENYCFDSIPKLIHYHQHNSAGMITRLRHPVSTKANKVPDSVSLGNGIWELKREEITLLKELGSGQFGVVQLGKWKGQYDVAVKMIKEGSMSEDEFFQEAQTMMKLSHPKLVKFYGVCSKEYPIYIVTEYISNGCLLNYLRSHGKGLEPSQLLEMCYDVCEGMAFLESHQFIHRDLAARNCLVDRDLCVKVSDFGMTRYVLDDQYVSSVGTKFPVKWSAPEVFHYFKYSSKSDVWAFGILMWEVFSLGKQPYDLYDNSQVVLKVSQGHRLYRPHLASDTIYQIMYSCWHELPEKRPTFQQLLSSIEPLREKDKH
Method: as §1, §2

[4] = target: GSK3β(h) (Homo sapiens, UniProt P49841); assay: GSK3β(h) kinase assay; settings: 3 μM; percent of control kinase activity
GSK3β(h), sequence (P49841 whole entry): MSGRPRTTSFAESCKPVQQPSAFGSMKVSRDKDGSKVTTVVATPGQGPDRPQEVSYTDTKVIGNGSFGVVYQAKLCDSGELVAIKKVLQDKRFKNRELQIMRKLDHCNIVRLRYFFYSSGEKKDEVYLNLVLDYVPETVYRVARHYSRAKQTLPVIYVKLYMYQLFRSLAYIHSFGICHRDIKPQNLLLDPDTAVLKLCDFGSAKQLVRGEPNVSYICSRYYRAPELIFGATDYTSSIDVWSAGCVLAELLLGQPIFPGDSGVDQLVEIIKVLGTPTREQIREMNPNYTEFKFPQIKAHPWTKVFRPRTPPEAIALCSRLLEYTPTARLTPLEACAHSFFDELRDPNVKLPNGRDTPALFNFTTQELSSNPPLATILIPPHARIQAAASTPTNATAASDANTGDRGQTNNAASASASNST
Method: as §1, §2
as §3, with “GSK3β” for “CDK2/cyclinA”, “20 μM […](p)EDEEE (phospho GS2 peptide; SEQ ID NO:3),” for “0.1 mg/ml histone H1,”, “[γ-^33P-ATP] (Specific” for “[γ-^33p-ATP] (specific”, “50” for “75”

[5] = target: IR(h) (Homo sapiens, UniProt P06213); assay: IR(h) kinase assay; settings: 3 μM; percent of control kinase activity
IR(h), sequence (P06213 28-1382): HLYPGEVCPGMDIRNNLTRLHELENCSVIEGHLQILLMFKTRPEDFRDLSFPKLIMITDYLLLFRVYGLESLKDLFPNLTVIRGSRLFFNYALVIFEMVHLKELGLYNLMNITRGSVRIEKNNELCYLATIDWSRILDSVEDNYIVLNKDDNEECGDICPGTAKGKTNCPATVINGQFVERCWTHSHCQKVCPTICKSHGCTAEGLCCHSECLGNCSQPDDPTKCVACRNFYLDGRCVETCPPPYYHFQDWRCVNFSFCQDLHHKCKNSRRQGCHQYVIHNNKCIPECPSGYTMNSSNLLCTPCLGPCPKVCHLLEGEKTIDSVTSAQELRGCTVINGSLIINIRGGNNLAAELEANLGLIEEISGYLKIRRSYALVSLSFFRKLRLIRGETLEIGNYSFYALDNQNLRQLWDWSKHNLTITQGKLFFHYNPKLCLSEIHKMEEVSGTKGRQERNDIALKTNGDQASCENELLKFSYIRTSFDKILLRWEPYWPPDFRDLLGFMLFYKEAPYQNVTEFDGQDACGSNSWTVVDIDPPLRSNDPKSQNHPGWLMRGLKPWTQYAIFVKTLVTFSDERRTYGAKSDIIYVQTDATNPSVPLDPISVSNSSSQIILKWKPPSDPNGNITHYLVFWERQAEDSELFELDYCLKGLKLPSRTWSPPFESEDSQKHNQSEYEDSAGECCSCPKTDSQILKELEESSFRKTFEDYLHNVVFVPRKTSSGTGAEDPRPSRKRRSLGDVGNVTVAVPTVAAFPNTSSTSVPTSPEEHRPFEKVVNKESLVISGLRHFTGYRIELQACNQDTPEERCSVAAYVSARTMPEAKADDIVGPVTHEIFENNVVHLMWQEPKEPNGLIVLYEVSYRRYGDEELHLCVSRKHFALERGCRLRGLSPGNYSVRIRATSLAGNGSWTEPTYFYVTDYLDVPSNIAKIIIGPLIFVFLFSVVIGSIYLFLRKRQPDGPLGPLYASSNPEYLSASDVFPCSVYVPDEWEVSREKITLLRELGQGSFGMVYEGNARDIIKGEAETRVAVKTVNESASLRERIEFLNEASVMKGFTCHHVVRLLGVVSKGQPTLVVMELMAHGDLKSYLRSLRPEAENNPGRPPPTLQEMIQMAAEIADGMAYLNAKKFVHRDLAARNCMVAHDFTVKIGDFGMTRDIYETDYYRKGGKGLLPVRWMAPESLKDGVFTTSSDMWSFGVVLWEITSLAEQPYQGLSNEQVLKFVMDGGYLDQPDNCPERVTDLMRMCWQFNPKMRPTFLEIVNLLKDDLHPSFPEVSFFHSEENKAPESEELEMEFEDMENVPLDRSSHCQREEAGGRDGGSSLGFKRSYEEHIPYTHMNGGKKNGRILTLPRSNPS
Method: as §1, §2
In a final reaction volume of 25 μl, IR (h) (5-10 mU) is incubated with 50 mM Tris pH 7.5, 0.1 mM EGTA, 0.1 mM NaVanadate, 0.1% β-mercaptoethanol, 250 μM […] (SEQ ID NO: 15), 10 mM MnCl2, 10 mM MgAcetate and [γ-^33P-ATP] (Specific activity approx. 500 cpm/pmol, concentration as required). The reaction is initiated by the addition of Mg^2+ [γ-^33P-ATP]. After incubation for 40 minutes at room temperature, the reaction is stopped by the addition of 5 μl of a 3% phosphoric acid solution. 10 μl of the reaction is then spotted onto a P30 filtermat and washed three times for 5 minutes in 75 mM phosphoric acid and once in methanol prior to drying and scintillation counting.

[6] = target: MEK1(h) (Homo sapiens, UniProt Q02750); assay: MEK1(h) kinase assay; settings: for Inhibitory activity (% of control), MEK1(h): 3 μM, percent of control kinase activity
MEK1(h), sequence (Q02750 whole entry): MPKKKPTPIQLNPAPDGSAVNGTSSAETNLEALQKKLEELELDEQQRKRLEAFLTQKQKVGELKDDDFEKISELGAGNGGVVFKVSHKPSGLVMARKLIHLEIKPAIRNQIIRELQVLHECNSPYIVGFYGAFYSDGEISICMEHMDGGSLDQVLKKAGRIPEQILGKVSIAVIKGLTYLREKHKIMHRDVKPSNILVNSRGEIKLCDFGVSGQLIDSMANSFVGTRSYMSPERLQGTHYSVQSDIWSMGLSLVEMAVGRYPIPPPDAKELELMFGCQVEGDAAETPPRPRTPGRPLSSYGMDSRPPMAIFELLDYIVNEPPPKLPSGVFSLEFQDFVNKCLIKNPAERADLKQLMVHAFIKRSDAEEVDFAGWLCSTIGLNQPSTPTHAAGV
Method: as §1, §2
The reaction is initiated by the addition of the MgATP. After incubation for 40 minutes at room temperature, 5 μl of this incubation mix is used to initiate a MAPK2 (m) assay, which is described on […].

| Inhibitory activity (% of control), CDK2/cyclinA(h) [1] | Inhibitory activity (% of control), cSRC(h) [2] | Inhibitory activity (% of control), Bmx(h) [3] | Inhibitory activity (% of control), GSK3β(h) [4] | Inhibitory activity (% of control), IR(h) [5] | Inhibitory activity (% of control), MEK1(h) [6] | inhibitory activity against CDK2, in words ([1]; summary of Table 2) | inhibitory activity against cSrc, in words ([2]; summary of Table 2) | inhibitory activity against MEK1, in words ([6]; summary of Table 2) | SMILES |
| --- | --- | --- | --- | --- | --- | --- | --- | --- | --- |
| 2 % of control | 67 % of control | 98 % of control | 63 % of control | 89 % of control | 11 % of control | good inhibitory activity | somewhat less inhibitory activity | good inhibitory activity | CC(C)(C)Cc1nc(-c2ccc3[nH]nc(-c4ccc5cc(OCc6ccccn6)ccc5c4)c3c2)n[nH]1 [CC004, 5-[5-(2,2-Dimethyl-propyl)-1H-[1,2,4]triazol-3-yl]-3-[6-(pyridine-2-ylmethoxy)-naphthalen-2-yl]-1H-indazole] |
| 2 % of control | 3 % of control | 36 % of control | 34 % of control | 31 % of control | 2 % of control |  |  |  | CCN1CCC[C@H]1COc1ccc2cc(-c3n[nH]c4ccc(-c5nc(CC(C)(C)C)n[nH]5)cc34)ccc2c1 [CC005, 2-[((2s)-1-ethylpyrrolidin-2-yl)methoxy]-6-{5-[3-(2,2-Dimethylpropyl)(1H-1,2,4,-triazol-5-yl)](1H-indazol-3-yl)}naphthalene] |

| SMILES | Inhibitory activity (% of control), CDK2/cyclinA(h) [1] | Inhibitory activity (% of control), cSRC(h) [2] | Inhibitory activity (% of control), Bmx(h) [3] | Inhibitory activity (% of control), GSK3β(h) [4] | Inhibitory activity (% of control), IR(h) [5] | Inhibitory activity (% of control), MEK1(h) [6] | inhibitory activity against CDK2, in words ([1]; summary of Table 2) | inhibitory activity against cSrc, in words ([2]; summary of Table 2) | inhibitory activity against MEK1, in words ([6]; summary of Table 2) |
| --- | --- | --- | --- | --- | --- | --- | --- | --- | --- |
| COc1ccc2cc(-c3n[nH]c4ccc(-c5n[nH]c(CN6CCOCC6)n5)cc34)ccc2c1 [CC001, 3-(6-Methoxynaphthalen-2-yl)-5-(5-Morpholin-4-Ylmethyl-1H-[1,2,4]Triazol-3-yl)-1H-Indazole] | 4 % of control | 2 % of control | 74 % of control | 12 % of control | 74 % of control | 4 % of control |  |  |  |
